Measurements published in US12174198B2, “Methods of characterizing condensate-associated characteristics of compounds and uses thereof” (Dewpoint Therapeutics, Inc., priority 2019, dated 2024).

Experiments:
Format in all cases: physicochemical
FUS-SNAP condensates = biological target: T1, FUS-SNAP condensates (Homo sapiens, UniProt P35637); experiment: Fluorescence imaging of dye partitioning in FUS-SNAP condensates (I-in, I-out); conditions: for Ratio of intensity inside:outside FUS-SNAP Condensates Day 1 / Ratio of intensity inside:outside FUS-SNAP Condensates Day 2 / Ratio of intensity inside:outside FUS-SNAP Condensates Average: I-in:I-out; for Ratio of intensity inside:outside FUS-SNAP Condensates Day 1 / Ratio of intensity inside:outside FUS-SNAP Condensates Day 2 / Ratio of intensity inside:outside FUS-SNAP Condensates Average / Intensity Inside with Dye Average / Intensity Inside with Dye 1 / Intensity Inside with Dye 2 / Intensity Inside with Dye 3 / Intensity Outside with Dye Average / Intensity Outside with Dye 1 / Intensity Outside with Dye 2 / Intensity Outside with Dye 3: 10 μM dye; for Ratio of intensity inside:outside FUS-SNAP Condensates Average: average of two days; for Intensity Inside with Dye Average / Intensity Inside with Dye 1 / Intensity Inside with Dye 2 / Intensity Inside with Dye 3 / Intensity Inside Dye-No Dye: inside FUS-SNAP condensate; for Intensity Inside with Dye Average / Intensity Inside with Dye 1 / Intensity Inside with Dye 2 / Intensity Inside with Dye 3 / Intensity Outside with Dye Average / Intensity Outside with Dye 1 / Intensity Outside with Dye 2 / Intensity Outside with Dye 3: 5 μM protein; for Intensity Inside with Dye Average / Intensity Outside with Dye Average: average of three images; for Intensity Inside with Dye Average / Intensity Inside with Dye 1 / Intensity Inside with Dye 2 / Intensity Inside with Dye 3 / Intensity Inside Dye-No Dye / Intensity Outside with Dye Average / Intensity Outside with Dye 1 / Intensity Outside with Dye 2 / Intensity Outside with Dye 3 / Intensity Outside (Dye-No Dye): one day of experiments; for Intensity Inside with Dye 1 / Intensity Outside with Dye 1: image 1; for Intensity Inside with Dye 2 / Intensity Outside with Dye 2: image 2; for Intensity Inside with Dye 3 / Intensity Outside with Dye 3: image 3; for Intensity Inside Dye-No Dye / Intensity Outside (Dye-No Dye): background corrected; for Intensity Outside with Dye Average / Intensity Outside with Dye 1 / Intensity Outside with Dye 2 / Intensity Outside with Dye 3 / Intensity Outside (Dye-No Dye): outside FUS-SNAP condensate
T1 sequence (P35637 1-526): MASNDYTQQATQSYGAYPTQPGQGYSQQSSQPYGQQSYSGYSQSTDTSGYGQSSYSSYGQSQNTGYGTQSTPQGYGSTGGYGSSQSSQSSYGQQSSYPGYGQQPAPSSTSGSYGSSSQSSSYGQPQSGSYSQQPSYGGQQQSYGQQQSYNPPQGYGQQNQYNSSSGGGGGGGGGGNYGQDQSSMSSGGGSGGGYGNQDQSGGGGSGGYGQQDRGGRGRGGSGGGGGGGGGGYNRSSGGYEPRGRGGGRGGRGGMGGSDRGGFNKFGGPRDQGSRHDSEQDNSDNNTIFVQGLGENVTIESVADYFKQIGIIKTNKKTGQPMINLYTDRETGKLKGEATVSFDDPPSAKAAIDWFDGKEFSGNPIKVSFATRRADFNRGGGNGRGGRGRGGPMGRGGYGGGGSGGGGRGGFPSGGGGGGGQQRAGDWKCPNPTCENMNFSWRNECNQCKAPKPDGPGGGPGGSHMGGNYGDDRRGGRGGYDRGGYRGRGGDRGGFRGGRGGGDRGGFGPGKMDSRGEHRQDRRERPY
Method: (§1) All dye-stocks were stored as 1 mM solutions in 100% DMSO. The dyes were dissolved in dilution buffer (DB: 14.7 mM Tris, pH 7.25, 1 mM DTT) to yield 11.765 μM dye in 1.1765 DMSO. 17 μl of dye was distributed in a 384 well non-binding plate (Greiner).
(§2) Either SNAP-tagged FUS protein or tag-free PGL-3 protein was thawed at room temperature for at least 10 min, and the buffer was exchanged to partitioning buffer (PB: 50 mM Tris pH 7.25, 500 mM KCl, 5% Glycerol, and 1 mM DTT). The protein was then diluted to 33.3 μM in PB. 3 μl of protein solution were added to the 384 well plate to initiate phase separation, yielding 20 μl of 5 μM protein and 10 μM dye in 75 mM KCl, 0.75% Glycerol, 20 mM Tris, 1 mM DTT, and 1% DMSO or for no dye control reactions, 20 μl of 5 μM protein in 75 mM KCl, 0.75% Glycerol, 20 mM Tris, 1 mM DTT.
(§3) A spinning disk confocal microscope was used to acquire images of the samples. A 60×oil high-NA objective lens was used to capture the condensate droplets. The laser power was set to 20% and the exposure times were adjusted to the fluorescence emission intensity specific for each dye. Exposure times ranged from 1-1000 ms. Appropriate filter settings were used, matching the excitation and emission spectra of the respective dyes. Three images per well were taken. The background signal of protein droplets in the absence of dye was recorded for all applied imaging conditions.
(§4) Fluorescence intensity was measured inside one exemplary target condensate (Intensity inside, I-in) per image and in a region next to the exemplary target condensate (Intensity outside, I-out) by hand using the image analysis software Fiji. An example depicting the regions measured is shown FIG. 2A. Three I-in and three I-out values were measured in total for each dye in each experiment and were averaged. The measured I-in and I-out values for FUS-SNAP condensates on one day of experiments are shown in Table 2 and Table 3, respectively. The measured I-in and I-out values for PGL-3 condensates on one day of experiments are shown in Table 4 and Table 5, respectively. All values were background corrected, based on the background images (no dye controls) taken with the same microscope conditions.
(§5) The ratios of the average intensity measured in the target condensates and outside of the target condensates were calculated by dividing I-in by I-out, although dividing I-out by I-in could also have been used. The I-in:I-out ratios determined from the two different days of experiments were then averaged. The average I-in:I-out ratios for FUS-SNAP condensates are shown in FIG. 3 and the average I-in:I-out ratios for PGL-3 condensates are shown in FIG. 4. The standard deviation between the two experiments is represented by the error bars in FIG. 3 and FIG. 4.

PGL-3 condensates = biological target: T2, PGL-3 condensates (Caenorhabditis elegans, UniProt G5EBV6); experiment: Fluorescence imaging of dye partitioning in PGL-3 condensates (I-in, I-out); conditions: for Ratio of intensity inside:outside PGL-3 Condensates Day 1 / Ratio of intensity inside:outside PGL-3 Condensates Day 2 / Ratio of intensity inside:outside PGL-3 Condensates Average: I-in:I-out; for Ratio of intensity inside:outside PGL-3 Condensates Day 1 / Ratio of intensity inside:outside PGL-3 Condensates Day 2 / Ratio of intensity inside:outside PGL-3 Condensates Average / Intensity Inside with Dye Average / Intensity Inside with Dye 1 / Intensity Inside with Dye 2 / Intensity Inside with Dye 3 / Intensity Outside with Dye Average / Intensity Outside with Dye 1 / Intensity Outside with Dye 2 / Intensity Outside with Dye 3: 10 μM dye; for Ratio of intensity inside:outside PGL-3 Condensates Average: average of two days; for Intensity Inside with Dye Average / Intensity Inside with Dye 1 / Intensity Inside with Dye 2 / Intensity Inside with Dye 3 / Intensity Inside Dye-No Dye: inside PGL-3 condensate; for Intensity Inside with Dye Average / Intensity Inside with Dye 1 / Intensity Inside with Dye 2 / Intensity Inside with Dye 3 / Intensity Outside with Dye Average / Intensity Outside with Dye 1 / Intensity Outside with Dye 2 / Intensity Outside with Dye 3: 5 μM protein; for Intensity Inside with Dye Average / Intensity Outside with Dye Average: average of three images; for Intensity Inside with Dye Average / Intensity Inside with Dye 1 / Intensity Inside with Dye 2 / Intensity Inside with Dye 3 / Intensity Inside Dye-No Dye / Intensity Outside with Dye Average / Intensity Outside with Dye 1 / Intensity Outside with Dye 2 / Intensity Outside with Dye 3 / Intensity Outside (Dye-No Dye): one day of experiments; for Intensity Inside with Dye 1 / Intensity Outside with Dye 1: image 1; for Intensity Inside with Dye 2 / Intensity Outside with Dye 2: image 2; for Intensity Inside with Dye 3 / Intensity Outside with Dye 3: image 3; for Intensity Inside Dye-No Dye / Intensity Outside (Dye-No Dye): background corrected; for Intensity Outside with Dye Average / Intensity Outside with Dye 1 / Intensity Outside with Dye 2 / Intensity Outside with Dye 3 / Intensity Outside (Dye-No Dye): outside PGL-3 condensate
T2 sequence (G5EBV6 1-693): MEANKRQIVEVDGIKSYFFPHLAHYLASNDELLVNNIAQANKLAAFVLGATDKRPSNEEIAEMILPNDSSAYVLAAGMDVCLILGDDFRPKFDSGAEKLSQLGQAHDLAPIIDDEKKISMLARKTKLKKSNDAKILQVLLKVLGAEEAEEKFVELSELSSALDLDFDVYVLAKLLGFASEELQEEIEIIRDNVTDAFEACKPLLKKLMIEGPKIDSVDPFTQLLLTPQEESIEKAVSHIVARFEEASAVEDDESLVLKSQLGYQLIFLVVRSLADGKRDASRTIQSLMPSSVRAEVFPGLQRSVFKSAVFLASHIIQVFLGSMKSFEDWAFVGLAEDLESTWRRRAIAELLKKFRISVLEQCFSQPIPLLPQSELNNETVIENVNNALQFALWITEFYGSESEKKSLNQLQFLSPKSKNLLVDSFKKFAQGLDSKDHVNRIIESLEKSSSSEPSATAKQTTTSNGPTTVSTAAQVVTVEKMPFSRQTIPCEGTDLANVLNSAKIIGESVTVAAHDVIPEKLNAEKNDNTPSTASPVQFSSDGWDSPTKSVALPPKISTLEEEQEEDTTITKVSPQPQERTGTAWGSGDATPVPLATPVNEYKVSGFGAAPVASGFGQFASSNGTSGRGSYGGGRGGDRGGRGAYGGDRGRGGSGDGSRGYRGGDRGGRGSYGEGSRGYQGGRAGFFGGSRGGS
Method: as §1, §2, §3, §4, §5

[1] = test system: FUS-SNAP condensates versus PGL-3 condensates; experiment: Condensate preference: ratio of FUS-SNAP I-in:I-out to PGL-3 I-in:I-out; conditions: average FUS-SNAP I-in:I-out divided by average PGL-3 I-in:I-out
Method: as §5

SMILES | Ratio of intensity inside:outside FUS-SNAP Condensates Day 1 (FUS-SNAP condensates) | Ratio of intensity inside:outside FUS-SNAP Condensates Day 2 (FUS-SNAP condensates) | Ratio of intensity inside:outside FUS-SNAP Condensates Average (FUS-SNAP condensates) | Intensity Inside with Dye Average (FUS-SNAP condensates) | Intensity Inside with Dye 1 (FUS-SNAP condensates) | Intensity Inside with Dye 2 (FUS-SNAP condensates) | Intensity Inside with Dye 3 (FUS-SNAP condensates) | Intensity Inside Dye-No Dye (FUS-SNAP condensates) | Intensity Outside with Dye Average (FUS-SNAP condensates) | Intensity Outside with Dye 1 (FUS-SNAP condensates) | Intensity Outside with Dye 2 (FUS-SNAP condensates) | Intensity Outside with Dye 3 (FUS-SNAP condensates) | Intensity Outside (Dye-No Dye) (FUS-SNAP condensates) | Ratio of intensity inside:outside PGL-3 Condensates Day 1 (PGL-3 condensates) | Ratio of intensity inside:outside PGL-3 Condensates Day 2 (PGL-3 condensates) | Ratio of intensity inside:outside PGL-3 Condensates Average (PGL-3 condensates) | Intensity Inside with Dye Average (PGL-3 condensates) | Intensity Inside with Dye 1 (PGL-3 condensates) | Intensity Inside with Dye 2 (PGL-3 condensates) | Intensity Inside with Dye 3 (PGL-3 condensates) | other results
N=C(N)c1ccc(-c2cc3ccc(C(=N)N)cc3[nH]2)cc1 [Dye 1, DAPI] | 4.6 | 3.3 | 4.0 | 622.4 | 638.5 | 599.9 | 628.8 | 502.4 | 228.6 | 233.9 | 233.3 | 218.7 | 108.6 | 1.9 | 3.3 | 2.6 | 212.6 | 211.3 | 211.0 | 215.7 | Intensity Inside Dye-No Dye (PGL-3 condensates): 91.9; Intensity Outside with Dye Average (PGL-3 condensates): 168.8; Intensity Outside with Dye 1 (PGL-3 condensates): 173.1; Intensity Outside with Dye 2 (PGL-3 condensates): 168.4; Intensity Outside with Dye 3 (PGL-3 condensates): 164.9; Intensity Outside (Dye-No Dye) (PGL-3 condensates): 48.4; Ratio of FUS-SNAP:PGL-3 [1]: 1.5
O=C(O)c1cc2cc3c4c(c2oc1=O)CCCN4CCC3 [Dye 3, Coumarin 343] | 2.5 | 2.8 | 2.7 | 3572.7 | 3451.6 | 3462.2 | 3804.4 | 3452.8 | 1498.4 | 1486.5 | 1529.0 | 1479.6 | 1378.3 | 1.5 | 1.1 | 1.3 | 2098.0 | 2228.4 | 2006.3 | 2059.4 | Intensity Inside Dye-No Dye (PGL-3 condensates): 1977.3; Intensity Outside with Dye Average (PGL-3 condensates): 1447.1; Intensity Outside with Dye 1 (PGL-3 condensates): 1472.5; Intensity Outside with Dye 2 (PGL-3 condensates): 1407.6; Intensity Outside with Dye 3 (PGL-3 condensates): 1461.1; Intensity Outside (Dye-No Dye) (PGL-3 condensates): 1326.6; Ratio of FUS-SNAP:PGL-3 [1]: 2.0
